{
  "source": "patent US20240199649A1",
  "about": "(Biosplice Therapeutics, Inc., priority 2022, published 2024)",
  "target": "recombinant DYRK1A kinase (Homo sapiens (Human), UniProt Q13627)",
  "assay": "DYRK1A kinase assay (Ser/Thr 18 peptide Z-lyte FRET assay)",
  "type": "biochemical",
  "conditions": "DYRK1A 0.25 μg/mL, ATP 15 μM, Ser/Thr peptide 18 4 μM; one hour at room temperature; 11-point dose-response, duplicate",
  "procedure,_shortened": "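Z-lyte FRET assay on Ser/Thr 18 peptide, kinase activity read as coumarin/fluorescein emission ratio; compounds incubated 1 h at room temperature, then development reagent 1 h, in duplicate. Phosphorylated and unphosphorylated peptide served as controls; IC50 by non-linear regression of dose-response curves.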",
  "data": [
    {"compound": "CNc1nc(N[C@@H]2CCN(C(C)=O)CC2(F)F)nn2ccc(-c3ccc4ncn(CC(F)(F)F)c4n3)c12", "note": "[Compound 1018, (R)-1-(3,3-Difluoro-4-((4-(methylamino)-5-(3-(2,2,2-trifluoroethyl)-3H-imidazo[4,5-b]pyridin-5-yl)pyrrolo[2,1-f][1,2,4]triazin-2-yl)amino)piperidin-1-yl)ethan-1-one]", "values": [
      {"measurement": "IC50", "value": 1.6, "unit": "nM"}
    ]},
    {"compound": "CNc1nc(N[C@@H]2CCN(C3COC3)CC2(F)F)nn2ccc(-c3ccc4ncn(CC(F)(F)F)c4n3)c12", "note": "[Compound 1019, (R)—N^2-(3,3-Difluoro-1-(oxetan-3-yl)piperidin-4-yl)-N^4-methyl-5-(3-(2,2,2-trifluoroethyl)-3H-imidazo[4,5-b]pyridin-5-yl)pyrrolo[2,1-f][1,2,4]triazine-2,4-diamine]", "values": [
      {"measurement": "IC50", "value": 1.7, "unit": "nM"}
    ]},
    {"compound": "CNc1nc(N[C@H]2CCN(C(C)=O)C[C@H]2F)nn2ccc(-c3ccc4nc(C)n(CCF)c4n3)c12", "note": "[Compound 1020, 1-((3R,4S)-3-Fluoro-4-((5-(3-(2-fluoroethyl)-2-methyl-3H-imidazo[4,5-b]pyridin-5-yl)-4-(methylamino)pyrrolo[2,1-f][1,2,4]triazin-2-yl)amino)piperidin-1-yl)ethan-1-one]", "values": [
      {"measurement": "IC50", "value": 2.1, "unit": "nM"}
    ]},
    {"compound": "CNc1nc(N[C@@H]2CCN(C(C)=O)CC2(F)F)nn2ccc(-c3ccc4nc(C)n(CCF)c4n3)c12", "note": "[Compound 1021, (R)-1-(3,3-Difluoro-4-((5-(3-(2-fluoroethyl)-2-methyl-3H-imidazo[4,5-b]pyridin-5-yl)-4-(methylamino)pyrrolo[2,1-f][1,2,4]triazin-2-yl)amino)piperidin-1-yl)ethan-1-one]", "values": [
      {"measurement": "IC50", "value": 1.3, "unit": "nM"}
    ]},
    {"compound": "CNc1nc(N[C@H]2CCN(C(C)=O)C[C@H]2F)nn2ccc(-c3ccc4nc(C)n(CC(F)F)c4n3)c12", "note": "[Compound 1022, 1-((3R,4S)-4-((5-(3-(2,2-Difluoroethyl)-2-methyl-3H-imidazo[4,5-b]pyridin-5-yl)-4-(methylamino)pyrrolo[2,1-f][1,2,4]triazin-2-yl)amino)-3-fluoropiperidin-1-yl)ethan-1-one]", "values": [
      {"measurement": "IC50", "value": 0.4, "unit": "nM"}
    ]},
    {"compound": "CNc1nc(N[C@@H]2CCN(C(C)=O)CC2(F)F)nn2ccc(-c3ccc4nc(C)n(CC(F)F)c4n3)c12", "note": "[Compound 1023, (R)-1-(4-((5-(3-(2,2-Difluoroethyl)-2-methyl-3H-imidazo[4,5-b]pyridin-5-yl)-4-(methylamino)pyrrolo[2,1-f][1,2,4]triazin-2-yl)amino)-3,3-difluoropiperidin-1-yl)ethan-1-one]", "values": [
      {"measurement": "IC50", "value": 4.7, "unit": "nM"}
    ]},
    {"compound": "CNc1nc(N[C@@H]2CCN(C(C)=O)CC2(F)F)nn2ccc(-c3ccc4nc(C)n(CC(F)(F)F)c4n3)c12", "note": "[Compound 1024, (R)-1-(3,3-Difluoro-4-((5-(2-methyl-3-(2,2,2-trifluoroethyl)-3H-imidazo[4,5-b]pyridin-5-yl)-4-(methylamino)pyrrolo[2,1-f][1,2,4]triazin-2-yl)amino)piperidin-1-yl)ethan-1-one]", "values": [
      {"measurement": "IC50", "value": 1, "unit": "nM"}
    ]},
    {"compound": "CNc1nc(NC2CCC(F)(F)CC2)nn2ccc(-c3ccc4nnn(CC(F)F)c4n3)c12", "note": "[Compound 1025, N^2-(4,4-Difluorocyclohexyl)-5-(3-(2,2-difluoroethyl)-3H-[1,2,3]triazolo[4,5-b]pyridin-5-yl)-N^4-methylpyrrolo[2,1-f][1,2,4]triazine-2,4-diamine]", "values": [
      {"measurement": "IC50", "value": 10.1, "unit": "nM"}
    ]},
    {"compound": "CNc1nc(N[C@@H]2CN(C(C)=O)C[C@@H]2F)nn2ccc(-c3ccc4nnn(CC(F)F)c4n3)c12", "note": "[Compound 1026, 1-((3R,4S)-3-((5-(3-(2,2-Difluoroethyl)-3H-[1,2,3]triazolo[4,5-b]pyridin-5-yl)-4-(methylamino)pyrrolo[2,1-f][1,2,4]triazin-2-yl)amino)-4-fluoropyrrolidin-1-yl)ethan-1-one]", "values": [
      {"measurement": "IC50", "value": 0.3, "unit": "nM"}
    ]},
    {"compound": "CNc1nc(N[C@@H]2CN(C)CC2(F)F)nn2ccc(-c3ccc4nnn(CC(F)F)c4n3)c12", "note": "[Compound 1027, (R)—N^2-(4,4-Difluoro-1-methylpyrrolidin-3-yl)-5-(3-(2,2-difluoroethyl)-3H-[1,2,3]triazolo[4,5-b]pyridin-5-yl)-N^4-methylpyrrolo[2,1-f][1,2,4]triazine-2,4-diamine]", "values": [
      {"measurement": "IC50", "value": 0.6, "unit": "nM"}
    ]},
    {"compound": "CNc1nc(N[C@@H]2CN(C3COC3)CC2(F)F)nn2ccc(-c3ccc4nnn(CC(F)F)c4n3)c12", "note": "[Compound 1028, (R)—N^2-(4,4-Difluoro-1-(oxetan-3-yl)pyrrolidin-3-yl)-5-(3-(2,2-difluoroethyl)-3H-[1,2,3]triazolo[4,5-b]pyridin-5-yl)-N^4-methylpyrrolo[2,1-f][1,2,4]triazine-2,4-diamine]", "values": [
      {"measurement": "IC50", "value": 1.3, "unit": "nM"}
    ]},
    {"compound": "CNc1nc(N[C@@H]2CCN(C(C)=O)CC2(F)F)nn2ccc(-c3ccc4nnn(CC(F)F)c4n3)c12", "note": "[Compound 1029, (R)-1-(4-((5-(3-(2,2-Difluoroethyl)-3H-[1,2,3]triazolo[4,5-b]pyridin-5-yl)-4-(methylamino)pyrrolo[2,1-f][1,2,4]triazin-2-yl)amino)-3,3-difluoropiperidin-1-yl)ethan-1-one]", "values": [
      {"measurement": "IC50", "value": 1.3, "unit": "nM"}
    ]},
    {"compound": "CNc1nc(N[C@H]2CC[C@](C)(O)CC2)nn2ccc(-c3ccc4nnn(CC(F)(F)F)c4n3)c12", "note": "[Compound 1031, (1r,4r)-1-Methyl-4-((4-(methylamino)-5-(3-(2,2,2-trifluoroethyl)-3H-[1,2,3]triazolo[4,5-b]pyridin-5-yl)pyrrolo[2,1-f][1,2,4]triazin-2-yl)amino)cyclohexan-1-ol]", "values": [
      {"measurement": "IC50", "value": 4, "unit": "nM"}
    ]},
    {"compound": "CNc1nc(N[C@H]2CCN(C(C)=O)C[C@H]2F)nn2ccc(-c3ccc4nnn(CC(F)(F)F)c4n3)c12", "note": "[Compound 1032, 1-((3R,4S)-3-Fluoro-4-((4-(methylamino)-5-(3-(2,2,2-trifluoroethyl)-3H-[1,2,3]triazolo[4,5-b]pyridin-5-yl)pyrrolo[2,1-f][1,2,4]triazin-2-yl)amino)piperidin-1-yl)ethan-1-one]", "values": [
      {"measurement": "IC50", "value": 2.8, "unit": "nM"}
    ]},
    {"compound": "CNc1nc(N[C@H]2CCN(C3COC3)C[C@H]2F)nn2ccc(-c3ccc4nnn(CC(F)(F)F)c4n3)c12", "note": "[Compound 1033, N^2-((3R,4S)-3-Fluoro-1-(oxetan-3-yl)piperidin-4-yl)-N^4-methyl-5-(3-(2,2,2-trifluoroethyl)-3H-[1,2,3]triazolo[4,5-b]pyridin-5-yl)pyrrolo[2,1-f][1,2,4]triazine-2,4-diamine]", "values": [
      {"measurement": "IC50", "value": 2, "unit": "nM"}
    ]},
    {"compound": "CNc1nc(N[C@@H]2CCN(C)CC2(F)F)nn2ccc(-c3ccc4nnn(CC(F)(F)F)c4n3)c12", "note": "[Compound 1034, (R)—N^2-(3,3-Difluoro-1-methylpiperidin-4-yl)-N^4-methyl-5-(3-(2,2,2-trifluoroethyl)-3H-[1,2,3]triazolo[4,5-b]pyridin-5-yl)pyrrolo[2,1-f][1,2,4]triazine-2,4-diamine]", "values": [
      {"measurement": "IC50", "value": 1.9, "unit": "nM"}
    ]},
    {"compound": "CNc1nc(N[C@@H]2CCN(C3COC3)CC2(F)F)nn2ccc(-c3ccc4nnn(CC(F)(F)F)c4n3)c12", "note": "[Compound 1036, (R)—N^2-(3,3-Difluoro-1-(oxetan-3-yl)piperidin-4-yl)-N^4-methyl-5-(3-(2,2,2-trifluoroethyl)-3H-[1,2,3]triazolo[4,5-b]pyridin-5-yl)pyrrolo[2,1-f][1,2,4]triazine-2,4-diamine]", "values": [
      {"measurement": "IC50", "value": 1, "unit": "nM"}
    ]},
    {"compound": "N^2-(4,4-Difluorocyclohexyl)-N^4-methyl-5-(3-(2,2,2-trifluoroethyl)-3H-[1,2,3]triazolo[4,5-b]pyridin-5-yl)pyrrolo[2,1-f][1,2,4]triazine-2,4-diamine [Compound 1030]", "values": [
      {"measurement": "IC50", "value": 193, "unit": "nM"}
    ]},
    {"compound": "N^4-Methyl-N^2-(1-(oxetan-3-yl)piperidin-4-yl)-5-(pyrazolo[1,5-a]pyridin-5-yl)pyrrolo[2,1-f][1,2,4]triazine-2,4-diamine [Compound 2]", "values": [
      {"measurement": "IC50", "value": 270, "unit": "nM"}
    ]}
  ]
}
